From the NIST ThermoML archive (doi:10.1016/j.jct.2016.03.026)
± gives the expanded uncertainty stated by the source.

Assay: xn = mol fraction of the nth substance listed
Conditions: 273.15 K, Fluid (supercritical or subcritical phases), x1 = 0.97; for mass density: Vibrating tube method; for speed of sound: Frequency=5 MHz, Pulse-echo method

O=C=O [carbon dioxide] + CO
Conditions	mass density [kg/m3]	speed of sound [m/s]
5000 kPa	943.89 ± 0.8	–
5025 kPa	944.05 ± 0.8	–
5050 kPa	944.22 ± 0.8	–
5075 kPa	944.38 ± 0.8	–
5100 kPa	944.55 ± 0.8	–
5125 kPa	944.71 ± 0.8	–
5150 kPa	944.88 ± 0.8	–
5175 kPa	945.05 ± 0.8	–
5200 kPa	945.28 ± 0.8	–
5225 kPa	945.45 ± 0.8	–
5250 kPa	945.61 ± 0.8	–
5275 kPa	945.83 ± 0.8	–
5300 kPa	945.95 ± 0.8	–
5325 kPa	946.18 ± 0.8	–
5350 kPa	946.35 ± 0.8	–
5375 kPa	946.51 ± 0.8	–
5400 kPa	946.68 ± 0.8	–
5425 kPa	946.88 ± 0.8	–
5450 kPa	947.02 ± 0.8	–
5475 kPa	947.19 ± 0.8	–
5500 kPa	947.38 ± 0.8	–
5525 kPa	947.55 ± 0.8	–
5550 kPa	947.7 ± 0.8	–
5575 kPa	947.84 ± 0.8	–
5600 kPa	948 ± 0.8	–
5625 kPa	948.22 ± 0.8	–
5650 kPa	948.35 ± 0.8	–
5675 kPa	948.48 ± 0.8	–
5700 kPa	948.64 ± 0.8	–
5725 kPa	948.81 ± 0.8	–
5750 kPa	948.97 ± 0.8	–
5775 kPa	949.13 ± 0.8	–
5800 kPa	949.3 ± 0.8	–
5825 kPa	949.41 ± 0.8	–
5850 kPa	949.62 ± 0.8	–
5875 kPa	949.74 ± 0.8	–
5900 kPa	949.87 ± 0.8	–
5925 kPa	950.03 ± 0.8	–
5950 kPa	950.2 ± 0.8	–
5975 kPa	950.35 ± 0.8	–
6000 kPa	950.47 ± 0.8	–
6020 kPa	–	581.6 ± 1
6025 kPa	950.61 ± 0.8	–
6040 kPa	–	581 ± 1
6050 kPa	950.77 ± 0.8	–
6075 kPa	950.93 ± 0.8	–
6100 kPa	951.1 ± 0.8	–
6125 kPa	951.26 ± 0.8	–
6150 kPa	951.39 ± 0.8	–
6175 kPa	951.59 ± 0.8	–
6200 kPa	951.67 ± 0.8	–
6225 kPa	951.86 ± 0.8	–
6250 kPa	952.08 ± 0.8	–
6275 kPa	952.24 ± 0.8	–
6300 kPa	952.33 ± 0.8	–
6325 kPa	952.49 ± 0.8	–
6350 kPa	952.65 ± 0.8	–
6375 kPa	952.82 ± 0.8	–
6400 kPa	952.98 ± 0.8	–
6425 kPa	953.14 ± 0.8	–
6450 kPa	953.31 ± 0.8	–
6475 kPa	953.47 ± 0.8	–
6500 kPa	953.64 ± 0.8	–
6525 kPa	953.73 ± 0.8	–
6550 kPa	953.88 ± 0.8	–
6575 kPa	954.04 ± 0.8	–
6600 kPa	954.21 ± 0.8	–
6625 kPa	954.37 ± 0.8	–
6650 kPa	954.53 ± 0.8	–
6675 kPa	954.7 ± 0.8	–
6700 kPa	954.86 ± 0.8	–
6725 kPa	955.03 ± 0.8	–
6750 kPa	955.19 ± 0.8	–
6775 kPa	955.35 ± 0.8	–
6800 kPa	955.52 ± 0.8	–
6825 kPa	955.67 ± 0.8	–
6850 kPa	955.82 ± 0.8	–
6875 kPa	955.96 ± 0.8	–
6900 kPa	956.09 ± 0.8	–
6925 kPa	956.25 ± 0.8	–
6950 kPa	956.42 ± 0.8	–
6975 kPa	956.58 ± 0.8	–
7000 kPa	956.75 ± 0.8	–
7025 kPa	956.91 ± 0.8	–
7050 kPa	956.99 ± 0.8	–
7075 kPa	957.15 ± 0.8	–
7100 kPa	957.34 ± 0.8	–
7125 kPa	957.48 ± 0.8	–
7150 kPa	957.65 ± 0.8	–
7175 kPa	957.81 ± 0.8	–
7200 kPa	957.97 ± 0.8	–
7225 kPa	958.14 ± 0.8	–
7250 kPa	958.27 ± 0.8	–
7275 kPa	958.38 ± 0.8	–
7300 kPa	958.55 ± 0.8	–
7325 kPa	958.71 ± 0.8	–
7350 kPa	958.87 ± 0.8	–
7375 kPa	959 ± 0.8	–
7400 kPa	959.12 ± 0.8	–
7425 kPa	959.28 ± 0.8	–
7450 kPa	959.45 ± 0.8	–
7475 kPa	959.61 ± 0.8	–
7500 kPa	959.77 ± 0.8	–
7525 kPa	959.94 ± 0.8	–
7550 kPa	960.02 ± 0.8	–
7575 kPa	960.18 ± 0.8	–
7600 kPa	960.35 ± 0.8	–
7625 kPa	960.51 ± 0.8	–
7650 kPa	960.68 ± 0.8	–
7675 kPa	960.84 ± 0.8	–
7700 kPa	960.92 ± 0.8	–
7725 kPa	961.08 ± 0.8	–
7750 kPa	961.25 ± 0.8	–
7775 kPa	961.41 ± 0.8	–
7800 kPa	961.54 ± 0.8	–
7825 kPa	961.66 ± 0.8	–
7850 kPa	961.82 ± 0.8	–
7875 kPa	961.98 ± 0.8	–
7900 kPa	962.15 ± 0.8	–
7925 kPa	962.23 ± 0.8	–
7950 kPa	962.39 ± 0.8	–
7975 kPa	962.56 ± 0.8	–
